Paper PMC6199744, “Development of Chemical Proteomics for the Folateome and Analysis of the Kinetoplastid Folateome” (ACS Infectious Diseases, 2018)
Like-named read-outs stand apart in the source and are kept apart here.

What was measured:
Assay type in all cases: binding
[1] = target: T1, HeLa cell extract proteins (Homo sapiens, UniProt P00367)
T1 construct: endogenous in cells; host or cells: HeLa cell extract

[2] = target: T2, HeLa cell extract proteins (Homo sapiens, UniProt P14868)
T2 construct: endogenous in cells; host or cells: HeLa cell extract
T2 sequence (P14868 1-501): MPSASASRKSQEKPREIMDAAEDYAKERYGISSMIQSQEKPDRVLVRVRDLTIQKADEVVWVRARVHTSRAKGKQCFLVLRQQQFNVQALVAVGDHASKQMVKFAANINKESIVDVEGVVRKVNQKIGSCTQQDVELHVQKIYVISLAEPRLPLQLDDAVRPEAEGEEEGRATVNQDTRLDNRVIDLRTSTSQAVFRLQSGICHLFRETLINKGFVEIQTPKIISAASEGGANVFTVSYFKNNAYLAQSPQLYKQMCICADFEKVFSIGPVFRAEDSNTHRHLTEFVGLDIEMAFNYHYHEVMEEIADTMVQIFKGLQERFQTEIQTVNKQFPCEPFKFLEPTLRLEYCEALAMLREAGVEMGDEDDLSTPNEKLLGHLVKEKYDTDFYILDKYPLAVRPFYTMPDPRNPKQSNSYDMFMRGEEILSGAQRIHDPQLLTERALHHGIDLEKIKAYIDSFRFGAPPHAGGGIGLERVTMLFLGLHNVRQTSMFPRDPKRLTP

[3] = target: T3, HeLa cell extract proteins (Homo sapiens, UniProt P15559)
T3 construct: endogenous in cells; host or cells: HeLa cell extract
T3 sequence (P15559 whole entry): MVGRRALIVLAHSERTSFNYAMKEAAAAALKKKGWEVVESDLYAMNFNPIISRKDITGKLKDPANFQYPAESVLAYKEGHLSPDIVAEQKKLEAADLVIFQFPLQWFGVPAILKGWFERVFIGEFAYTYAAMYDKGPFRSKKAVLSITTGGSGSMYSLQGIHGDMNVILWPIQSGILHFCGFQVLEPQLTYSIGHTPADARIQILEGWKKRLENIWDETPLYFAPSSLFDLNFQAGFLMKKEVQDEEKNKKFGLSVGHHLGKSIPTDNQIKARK

[4] = target: T4, HeLa cell extract proteins (Homo sapiens, UniProt P17980)
T4 construct: endogenous in cells; host or cells: HeLa cell extract
T4 sequence (P17980 whole entry): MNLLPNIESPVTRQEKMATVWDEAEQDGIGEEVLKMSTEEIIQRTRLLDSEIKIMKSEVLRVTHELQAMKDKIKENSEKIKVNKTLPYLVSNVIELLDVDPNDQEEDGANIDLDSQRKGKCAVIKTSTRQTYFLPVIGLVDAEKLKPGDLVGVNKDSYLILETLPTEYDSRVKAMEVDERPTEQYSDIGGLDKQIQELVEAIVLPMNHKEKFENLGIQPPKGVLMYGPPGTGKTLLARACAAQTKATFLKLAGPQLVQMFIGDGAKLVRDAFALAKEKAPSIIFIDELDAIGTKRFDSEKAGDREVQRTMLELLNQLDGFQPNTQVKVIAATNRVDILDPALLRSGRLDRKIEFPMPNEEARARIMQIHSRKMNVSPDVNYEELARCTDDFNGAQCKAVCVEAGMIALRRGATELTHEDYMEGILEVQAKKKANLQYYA

[5] = target: T5, HeLa cell extract proteins (Homo sapiens, UniProt P20073)
T5 construct: endogenous in cells; host or cells: HeLa cell extract
T5 sequence (P20073 1-488): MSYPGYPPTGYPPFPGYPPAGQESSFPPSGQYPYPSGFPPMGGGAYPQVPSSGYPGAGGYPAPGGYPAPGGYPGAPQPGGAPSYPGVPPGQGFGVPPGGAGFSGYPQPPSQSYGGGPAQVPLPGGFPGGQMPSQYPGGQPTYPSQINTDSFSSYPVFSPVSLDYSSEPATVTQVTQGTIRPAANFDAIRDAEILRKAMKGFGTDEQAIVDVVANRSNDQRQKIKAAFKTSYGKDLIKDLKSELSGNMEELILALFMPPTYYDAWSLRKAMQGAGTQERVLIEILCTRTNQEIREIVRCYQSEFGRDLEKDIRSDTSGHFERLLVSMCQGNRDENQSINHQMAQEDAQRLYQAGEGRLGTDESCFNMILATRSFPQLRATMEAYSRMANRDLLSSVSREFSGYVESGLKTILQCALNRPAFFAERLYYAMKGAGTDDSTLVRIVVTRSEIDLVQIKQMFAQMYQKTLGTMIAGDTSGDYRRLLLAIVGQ

[6] = target: T6, HeLa cell extract proteins (Homo sapiens, UniProt Q08380)
T6 construct: endogenous in cells; host or cells: HeLa cell extract
T6 sequence (Q08380 19-585): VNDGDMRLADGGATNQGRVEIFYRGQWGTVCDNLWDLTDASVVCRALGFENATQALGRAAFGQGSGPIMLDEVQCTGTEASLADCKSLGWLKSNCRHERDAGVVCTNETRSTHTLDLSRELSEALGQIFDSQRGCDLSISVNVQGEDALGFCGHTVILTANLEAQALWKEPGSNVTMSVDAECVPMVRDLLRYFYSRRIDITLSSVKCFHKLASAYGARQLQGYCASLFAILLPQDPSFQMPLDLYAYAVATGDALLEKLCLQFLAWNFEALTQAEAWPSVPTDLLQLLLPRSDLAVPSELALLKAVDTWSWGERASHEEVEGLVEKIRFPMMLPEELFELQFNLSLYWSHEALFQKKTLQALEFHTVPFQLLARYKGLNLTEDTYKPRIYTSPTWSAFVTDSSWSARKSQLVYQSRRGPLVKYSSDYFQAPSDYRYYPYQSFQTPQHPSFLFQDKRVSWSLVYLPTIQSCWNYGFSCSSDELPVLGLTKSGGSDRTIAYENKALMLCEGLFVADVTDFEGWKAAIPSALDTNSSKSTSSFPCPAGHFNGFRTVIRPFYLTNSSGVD

[7] = HeLa, protein LGALS3BP (GALECTIN-3-BINDING PROTEIN PRECURSOR)

T1 sequence (P00367 54-558): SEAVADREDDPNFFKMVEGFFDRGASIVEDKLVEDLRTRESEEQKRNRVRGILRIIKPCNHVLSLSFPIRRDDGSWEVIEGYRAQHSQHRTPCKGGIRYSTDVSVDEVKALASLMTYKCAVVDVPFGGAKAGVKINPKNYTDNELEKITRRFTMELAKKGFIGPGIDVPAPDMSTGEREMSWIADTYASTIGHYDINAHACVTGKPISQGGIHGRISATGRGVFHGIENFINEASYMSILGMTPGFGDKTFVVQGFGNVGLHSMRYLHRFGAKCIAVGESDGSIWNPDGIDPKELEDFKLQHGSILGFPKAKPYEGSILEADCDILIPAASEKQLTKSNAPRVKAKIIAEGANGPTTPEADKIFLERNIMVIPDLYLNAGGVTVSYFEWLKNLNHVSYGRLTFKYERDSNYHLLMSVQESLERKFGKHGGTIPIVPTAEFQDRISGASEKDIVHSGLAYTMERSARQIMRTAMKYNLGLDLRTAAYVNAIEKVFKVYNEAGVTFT

**Q.** For `Nc1nc2c(c(=O)[nH]1)N(C=O)C(CNc1ccc(C(=O)N[C@@H](CCC(=O)O)C(=O)O)cc1)CN2` (stereo partly drawn) [LEU, leucovorin], which “fold changes relative to vehicle control” value ([1]; HeLa, protein GLUD1) is on record?
**A.** 1.06

**Q.** And the “fold changes relative to vehicle control” value ([2]; HeLa, protein DARS)?
**A.** 0.94

**Q.** And the “fold changes relative to vehicle control” value ([3]; protein NQO1, HeLa)?
**A.** 1.12

**Q.** And the “fold changes relative to vehicle control” value ([4]; protein PSMC3, HeLa)?
**A.** 1.02

**Q.** And the “fold changes relative to vehicle control” value ([5]; HeLa, protein ANXA7)?
**A.** 0.98

**Q.** What about the “fold changes relative to vehicle control” value [6, 7] of the same compound?
**A.** 1.08

**Q.** What does the source list for `Nc1nc2[nH]cc(CCc3ccc(C(=O)N[C@@H](CCC(=O)O)C(=O)O)cc3)c2c(=O)[nH]1` [PTX, pemetrexed]?
**A.** fold changes relative to vehicle control [1]: 1.01; fold changes relative to vehicle control [2]: 0.98; fold changes relative to vehicle control [3]: 0.92; fold changes relative to vehicle control [4]: 1; fold changes relative to vehicle control [5]: 1.02; fold changes relative to vehicle control [6]: 1.13

**Q.** `CCCCCCOc1ccc(Cc2cnc(N)nc2N)cc1` [compound 1] was tested. Which “fold changes relative to vehicle control” value ([1]; protein GLUD1, HeLa) did it give?
**A.** 1.09

**Q.** And the “fold changes relative to vehicle control” value ([2]; protein DARS, HeLa)?
**A.** 1.02

**Q.** What about the “fold changes relative to vehicle control” value ([3]; HeLa, protein NQO1) of the same compound?
**A.** 1.12

**Q.** What about the “fold changes relative to vehicle control” value ([4]; protein PSMC3, HeLa) of the same compound?
**A.** 1.24

**Q.** What about the “fold changes relative to vehicle control” value ([5]; protein ANXA7, HeLa) of the same compound?
**A.** 1.06

**Q.** What about the “fold changes relative to vehicle control” value ([6]; protein LGALS3BP, HeLa) of the same compound?
**A.** 0.97

**Q.** Which “fold changes relative to vehicle control” value ([1]; protein GLUD1, HeLa) does the source give for `CCCCCCOc1cccc(Cc2cnc(N)nc2N)c1` [compound 2] here?
**A.** 1.33

**Q.** And the “fold changes relative to vehicle control” value ([2]; protein DARS, HeLa)?
**A.** 1.15

**Q.** What about the “fold changes relative to vehicle control” value ([3]; HeLa, protein NQO1) of the same compound?
**A.** 1.22

**Q.** What about the “fold changes relative to vehicle control” value ([4]; protein PSMC3, HeLa) of the same compound?
**A.** 1.46

**Q.** What about the “fold changes relative to vehicle control” value ([5]; protein ANXA7, HeLa) of the same compound?
**A.** 1.58

**Q.** What about the “fold changes relative to vehicle control” value ([6]; protein LGALS3BP, HeLa) of the same compound?
**A.** 0.95

**Q.** Which results are given for `Nc1nc2cccc(-c3ccccc3)c2n1Cc1ccc(Cl)c(Cl)c1` [compound 3]?
**A.** fold changes relative to vehicle control ([1]; protein GLUD1, HeLa): 0.92; fold changes relative to vehicle control ([2]; protein DARS, HeLa): 0.93; fold changes relative to vehicle control ([3]; HeLa, protein NQO1): 1.13; fold changes relative to vehicle control ([4]; protein PSMC3, HeLa): 1.03; fold changes relative to vehicle control ([5]; protein ANXA7, HeLa): 0.91; fold changes relative to vehicle control ([6]; protein LGALS3BP, HeLa): 1.07

**Q.** Which “fold changes relative to vehicle control” value ([1]; HeLa, protein GLUD1) does the source give for `NCCOCCOCC(=O)Nc1nc2ncc(CNc3ccc(C(=O)NC(CCC(=O)O)C(=O)O)cc3)nc2c(=O)[nH]1` (stereo not drawn) [compound 6] here?
**A.** 1.07

**Q.** And the “fold changes relative to vehicle control” value ([2]; HeLa, protein DARS)?
**A.** 0.99

**Q.** And the “fold changes relative to vehicle control” value ([3]; protein NQO1, HeLa)?
**A.** 0.6

**Q.** And the “fold changes relative to vehicle control” value ([4]; protein PSMC3, HeLa)?
**A.** 1.17

**Q.** And the “fold changes relative to vehicle control” value ([5]; HeLa, protein ANXA7)?
**A.** 1.13

**Q.** What about the “fold changes relative to vehicle control” value [6, 7] of the same compound?
**A.** 1.02

**Q.** With `NCCCNc1ccc(C(=O)NC(CCC(=O)O)C(=O)O)cc1` (stereo not drawn) [compound 7] as the compound, how does the “fold changes relative to vehicle control” value ([1]; HeLa, protein GLUD1) read?
**A.** 0.97

**Q.** And the “fold changes relative to vehicle control” value ([2]; HeLa, protein DARS)?
**A.** 1.06

**Q.** And the “fold changes relative to vehicle control” value ([3]; protein NQO1, HeLa)?
**A.** 2.36

**Q.** What about the “fold changes relative to vehicle control” value ([4]; protein PSMC3, HeLa) of the same compound?
**A.** 1.03

**Q.** What about the “fold changes relative to vehicle control” value ([5]; HeLa, protein ANXA7) of the same compound?
**A.** 0.83

**Q.** What about the “fold changes relative to vehicle control” value [6, 7] of the same compound?
**A.** 1.09
